Laboratory results reported in patent US20210113563A1, “4-(4-CYANO-2-THIOARYL)DIHYDROPYRIMIDINONES FOR TREATING CHRONIC WOUNDS” (pH Pharma Co., Ltd., priority 2015, published 2021).

Key:
myeloperoxidase (MPO) = assay: Myeloperoxidase (MPO) activity in wound tissue of diabetic mice (db/db); assay type: in vivo; settings: db/db mouse
Method: MPO determination is based on the oxidation of H2O2 by a peroxidase in the presence of TMB (3,3′5,5′-Tetramethylbenzidin). The results were quantified with a human MPO standard curve prepared in homogenate buffer, which also serves as a blank. Samples were diluted fifteen fold in homogenate buffer. Of each sample, standard and blank 20 μL were dispensed in a clear flat bottom MWP at RT. Following that 100 μL of fresh 0.2 mM TMB in AC-POX buffer are added and the reaction was started by adding 12.5 μL of 1 mM H2O2 in AC-POX buffer. After 5-10 min 22.5 μL of 1 N H2SO4 was added to stop the reaction and plates were vortexed briefly to evenly distribute the newly developed yellow color. […] Absorption was measured at k=450 nm and the amount of MPO in samples was calculated from standard curve in SoftmaxPro 6.4 after subtracting the blank.
To assess neutrophil activity in wound tissue samples, myeloperoxidase activity was measured.

[1] = tested on: wounds of diabetic mouse (db/db); assay: Visual wound size reduction in diabetic mouse (db/db); assay type: in vivo
Method: The wounding was conducted in the following manner: • 1) db/db mice were anaesthetized with Isoflurane/O2/N2O (2.5-3.5%/800 ml/min/500 ml/min), and placed on a heating pad upon induction after application of eye ointment • 2) mice were shaven and Pilca was applied for 3-5 minutes to remove the fur and fine hairs 3) two dorsal full thickness wounds were placed with a 8 mm punch biopsie tool after wiping the skin with ethanol and wound size was measured immediately • 4) mice were treated with Temgesic and kept on warming pad until recovery from anaesthesia
Wound Size Measurement: Wound size was measured with a sliding caliper. […] Assuming an elliptic shape, wound area was calculated with:
Wound size reduction on day i was calculated from the initial area on day 0 post wounding: […]

[2] = Exposure in plasma and skin of diabetic mouse (db/db); assay type: in vivo; settings: for Total concentration in skin: day 8; for Total concentration in plasma, geo mean: day 8, 20 h after last treatment
Method: Upon scarification on day 8, 20 h after the last treatment, arterial blood samples were collected into EDTA citrate serum sample tubes for LC/MSMS based quantification of compound exposure.

collagen in ulcer tissue = assay: Collagen deposition in chronic skin lesions of adriamycin-treated rats, Ladewig staining; assay type: in vivo, rat; settings: 10 mg/kg BW o.d. p.o., normal skin = 0, no blue staining = −10
Method: Vehicle: • DEPO—DMSO, Ethanol, Peanut Oil 5/3/92 (V/V/V) o.d., p.o., 5 ml/kg BW
Day 0: • Animal randomization, marking, inhalation anesthesia: isoflurane, O2, N2O mixture, shaving of lower back, the animals remain on warming pads in order to avoid cooling down during the adriamycin injection, pain prevention with Temgesic s.c.
Depot set: 3 intradermal injections of 0.15 ml adriamycin (2 mg/ml) per animal in front and rear back, size measurement of the depot via caliper.
(§1) On day 2, 4, 7, 9, 11, 14, 16, 18, 21, 23, 25 and 28 • inhalation anesthesia: isoflurane, O2, N2O mixture • size measurement of the depot and photos Day 28 section • inhalation anesthesia: isoflurane, O2, N2O mixture under anesthesia and then dislocation of the cervical spine • size measurement of the depot and the incision wound and photos • Former depots were harvested by punch biopsies • Wound 1/custodian of any animal->in liquid N2 for peroxidase and elastase determination • Wound 2/custodian of any animal->in liquid N2 for Hydroxyproline determination • Wound 3/custodian of any animal->in formalin fixed for histological studies • Samples were stored for further procedures at −80° C.
Paraffin-embedded skin samples: the skin piece is placed with the downside on a piece of cork and 4 with needles and transferred into formalin (3.7% in PBS). […]

[3] = tested on: collagen type I and collagen type III in ulcer tissue; assay: Collagen type I and III in lesions of pressure-applied mouse skin, Sirius red staining; assay type: in vivo; settings: for Collagen type I / Collagen type III: pressure-applied mouse skin, day 3 to 15, Sirius red
From the text: OBJECTIVE: Pressure ulcers (decubitus ulcers) represents a large subgroup of chronic wounds. They mainly affect aged or neurologically immobilized patients. Continuous pressure at discrete skin areas leads to long-lasting hard-to-heal ulcer wounds that are also characterized by neutrophil infiltration. The presented experiment was set up to mimic this condition by applying magnet-induced pressure onto mouse skin folds. Since the area of emerging wounds is variable in form and size, its usability as a readout parameter is technically limited.
METHODS: Magnet placement leads to wounds with dermal neutrophil infiltration and delayed wound healing. Three ischemia-reperfusion (IR) cycles (12 hours on, 12 hours off) were applied in each animal to initiate decubitus ulcer formation.
On day 0 (start of experiment), the mice were weighed and put in anesthesia using an isoflurane/O2/N2O mixture. Back and flank skin was shaven. Skin was moistened with tap water and depilated using Pilca cream. Skin was lifted at the back midline and one magnet was placed on each side of the skin fold so that they were exactly opposite to each other. The magnets were left in place for 12 hours, then taken off for 12 hours. This cycle was repeated three times in total.
After sacrificing (day 15) wounds were excised using a 10 mm punch scalpel.
To assess the content of collagen type I (mature form) and collagen type III (newly formed) in ulcer tissue, Sirius red staining was performed according to standard protocols.

[4] = tested on: collagen (hydroxyproline); assay: Hydroxyproline (HYP) assay in skin lesions of adriamycin-treated rats; assay type: in vivo, rat; settings: 10 mg/kg BW o.d. p.o.
From the text: as §1

EC50 ([1]; in vivo, read-out: Potency (EC50) to improve wound size reduction): 4.5 nM | Total concentration in skin ([2]; 0.03 mg/kg BW o.d. p.o.): 0.01 µM | Total concentration in plasma, geo mean ([2]; 0.03 mg/kg BW o.d. p.o.): 0.0029 µM | Total concentration in skin ([2]; 0.1 mg/kg BW o.d. p.o.): 0.03 µM | Total concentration in plasma, geo mean ([2]; 0.1 mg/kg BW o.d. p.o.): 0.011 µM | Total concentration in skin ([2]; 0.3 mg/kg BW o.d. p.o.): 0.06 µM | Total concentration in plasma, geo mean ([2]; 0.3 mg/kg BW o.d. p.o.): 0.027 µM | Total concentration in skin ([2]; 1.0 mg/kg BW o.d. p.o.): 0.16 µM | Total concentration in plasma, geo mean ([2]; 1.0 mg/kg BW o.d. p.o.): 0.067 µM | Total concentration in skin ([2]; 3.0 mg/kg BW o.d. p.o.): 0.30 ± 0.06 µM | Total concentration in plasma, geo mean ([2]; 3.0 mg/kg BW o.d. p.o.): 0.13 µM | Total concentration in skin ([2]; 10.0 mg/kg BW o.d. p.o.): 0.54 µM | Total concentration in plasma, geo mean ([2]; 10.0 mg/kg BW o.d. p.o.): 0.17 µM
SMILES: CC1=C(C#N)[C@@H](c2ccc(C#N)cc2S(C)(=O)=O)N(C)C(=O)N1c1cccc(C(F)(F)F)c1 [Example 5, (4 S)-4-[4-Cyano-2-(methylsulfonyl)phenyl]-3,6-dimethyl-2-oxo-1-[3-(trifluoromethyl)phenyl]-1,2,3,4-tetrahydropyrimidine-5-carbonitrile]
Neutrophil dependent inflammatory activity in wound tissue (MPO activity) (myeloperoxidase (MPO); 0.03 mg/kg BW o.d.): 0.00361 Peroxidase Activity/μg Protein | Neutrophil dependent inflammatory activity in wound tissue (MPO activity) (myeloperoxidase (MPO); 0.1 mg/kg BW o.d.): 0.00029 Peroxidase Activity/μg Protein | Neutrophil dependent inflammatory activity in wound tissue (MPO activity) (myeloperoxidase (MPO); 0.3 mg/kg BW o.d.): 0.00043 Peroxidase Activity/μg Protein | Neutrophil dependent inflammatory activity in wound tissue (MPO activity) (myeloperoxidase (MPO); 1.0 mg/kg BW o.d.): 0.00043 Peroxidase Activity/μg Protein | Neutrophil dependent inflammatory activity in wound tissue (MPO activity) (myeloperoxidase (MPO); 3.0 mg/kg BW o.d.): 0.00027 Peroxidase Activity/μg Protein | Neutrophil dependent inflammatory activity in wound tissue (MPO activity) (myeloperoxidase (MPO); 10.0 mg/kg BW o.d.): 0.00016 Peroxidase Activity/μg Protein | Inhibition of MPO activity in wound tissue (in words) (myeloperoxidase (MPO); from 0.1 mg/kg): potently and effectively inhibited MPO activity in wound tissue | Visual wound size ([1]; 0.03 mg/kg BW o.d. p.o.): 98.5 % initial area at day 8 | Visual wound size ([1]; 0.1 mg/kg BW o.d. p.o.): 86.07 % initial area at day 8 | Visual wound size ([1]; 0.3 mg/kg BW o.d. p.o.): 72 % initial area at day 8 | Visual wound size ([1]; 1.0 mg/kg BW o.d. p.o.): 71.16 % initial area at day 8 | Visual wound size ([1]; 3.0 mg/kg BW o.d. p.o.): 68.1 % initial area at day 8 | Visual wound size ([1]; 10.0 mg/kg BW o.d. p.o.): 54.85 % initial area at day 8 | Ladewig score (collagen in ulcer tissue): −1.38 (n = 8) | Collagen type III in pressure-induced lesions (in words) ([3]; mice, after 12 days of treatment): significant increase of collagen type III | Collagen type I ([3]; 1 mg/kg BW o.d.): 1.1 | Collagen type III ([3]; 1 mg/kg BW o.d.): 30.2 | Collagen type I ([3]; 10 mg/kg BW o.d.): 0.7 | Collagen type III ([3]; 10 mg/kg BW o.d.): 49.8 | Hydroxyproline [4]: 5169 (n = 10)
